The results in this text go back to US20090099195A1 (ASTRAZENECA AB, priority 2007, published 2009).

Each structure is given as a SMILES string.

The target of the experiment is T1, hP2X3 (human Purinergic P2X receptors subtype 3), clone B (Homo sapiens, UniProt P56373).
T1 sequence (P56373 1-397): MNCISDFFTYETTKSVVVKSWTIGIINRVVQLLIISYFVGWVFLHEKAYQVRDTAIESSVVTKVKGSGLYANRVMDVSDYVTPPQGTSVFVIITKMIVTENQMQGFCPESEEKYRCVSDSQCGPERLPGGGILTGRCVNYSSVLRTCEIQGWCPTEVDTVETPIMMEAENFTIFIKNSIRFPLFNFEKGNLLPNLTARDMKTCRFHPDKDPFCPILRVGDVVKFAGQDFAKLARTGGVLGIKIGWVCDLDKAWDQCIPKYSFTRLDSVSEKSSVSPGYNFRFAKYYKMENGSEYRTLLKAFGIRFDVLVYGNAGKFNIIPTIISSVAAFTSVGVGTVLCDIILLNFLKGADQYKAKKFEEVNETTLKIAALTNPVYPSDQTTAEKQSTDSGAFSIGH
The experiment is described as follows: hP2X3 FLIPR calcium (Fluo-4) antagonist assay, clone B. The following applies: Human P2X3 FLIPR Clone B IC50 (nM), RLE cells expressing hP2X3 clone B (NM_002559); agonist 500 nM α,β-methylene-ATP.
Regarding `CC(=O)N1CCN(c2nc(N[C@H](C)c3ccccc3C(F)(F)F)c3c(n2)C(=O)N(C(C)C)C3)CC1` [Example 226, (R)-2-(4-acetylpiperazin-1-yl)-6-isopropyl-4-(1-(2-(trifluoromethyl)phenyl)ethylamino)-5H-pyrrolo[3,4-d]pyrimidin-7(6H)-one], the IC50 came to 4400 nM.
With `COc1cccc([C@@H](C)Nc2nc(N3CCN(C(C)=O)CC3)nc3c2CN(C(C)C)C3=O)c1` [Example 227, (R)-2-(4-acetylpiperazin-1-yl)-6-isopropyl-4-(1-(3-methoxyphenyl)ethylamino)-5H-pyrrolo[3,4-d]pyrimidin-7(6H)-one], the IC50 is 8500 nM.
Consider `CC(=O)N1CCN(c2nc(NCc3ccc(-c4ccccc4)nc3)c3c(n2)C(=O)N(C(C)C)C3)CC1` [Example 228, 2-(4-acetylpiperazin-1-yl)-6-isopropyl-4-((6-phenylpyridin-3-yl)methylamino)-5H-pyrrolo[3,4-d]pyrimidin-7(6H)-one], for which the half-inhibitory concentration (IC50) was found to be 8800 nM.
For the molecule `CC(=O)N1CCN(c2nc(N[C@@H](C)c3cnc4ccccc4c3)c3c(n2)C(=O)N(C(C)C)C3)CC1` [Example 234, (S)-2-(4-acetylpiperazin-1-yl)-6-isopropyl-4-(1-(quinolin-3-yl)ethylamino)-5H-pyrrolo[3,4-d]pyrimidin-7(6H)-one], the IC50 is 1100 nM.
In the case of `CC(=O)N1CCN(c2nc(NCc3cc4ccccc4n3C)c3c(n2)C(=O)N(C(C)C)C3)CC1` [Example 237, 2-(4-acetylpiperazin-1-yl)-6-isopropyl-4-((1-methyl-1H-indol-2-yl)methylamino)-5H-pyrrolo[3,4-d]pyrimidin-7(6H)-one] it was 500 nM; in that of `CC(=O)N1CCN(c2nc3c(c(N(C)Cc4ccc5ncccc5c4)n2)CN(C(C)C)C3=O)CC1` [Example 239, 2-(4-acetylpiperazin-1-yl)-6-isopropyl-4-(methyl(quinolin-6-ylmethyl)amino)-5H-pyrrolo[3,4-d]pyrimidin-7(6H)-one], 1200 nM.
For `COc1ccc(CNc2nc(N3CCN(C(C)=O)CC3)nc3c2CN(C(C)C)C3=O)c2cccnc12` [Example 240, 2-(4-acetylpiperazin-1-yl)-6-isopropyl-4-((8-methoxyquinolin-5-yl)methylamino)-5H-pyrrolo[3,4-d]pyrimidin-7(6H)-one], the IC50 amounted to 1500 nM.
In the case of `CC(=O)N1CCN(c2nc(NCc3cc4ccccc4nc3C)c3c(n2)C(=O)N(C(C)C)C3)CC1` [Example 241, 2-(4-acetylpiperazin-1-yl)-6-isopropyl-4-((2-methylquinolin-3-yl)methylamino)-5H-pyrrolo[3,4-d]pyrimidin-7(6H)-one], the IC50 was determined as 68 nM.
`CC(=O)N1CCN(c2nc(N[C@@H](C)c3ccc4ncccc4c3)c3c(n2)C(=O)N(C(C)C)C3)CC1` [Example 244, (S)-2-(4-acetylpiperazin-1-yl)-6-isopropyl-4-(1-(quinolin-6-yl)ethylamino)-5H-pyrrolo[3,4-d]pyrimidin-7(6H)-one]: the half-inhibitory concentration (IC50) was found to be 6500 nM.
Consider `CC(=O)N1CCN(c2nc(NCc3ccc4ccccc4n3)c3c(n2)C(=O)N(C(C)C)C3)CC1` [Example 248, 2-(4-acetylpiperazin-1-yl)-6-isopropyl-4-(quinolin-2-ylmethylamino)-5H-pyrrolo[3,4-d]pyrimidin-7(6H)-one], for which the half-maximal inhibitory concentration (IC50) was found to be 6300 nM.
On to `CC(=O)N1CCN(c2nc3c(c(N(C)Cc4ccc5ccccc5n4)n2)CN(C(C)C)C3=O)CC1` [Example 249, 2-(4-acetylpiperazin-1-yl)-6-isopropyl-4-(methyl(quinolin-2-ylmethyl)amino)-5H-pyrrolo[3,4-d]pyrimidin-7(6H)-one], for which the concentration for half-maximal inhibition (IC50) came to 6000 nM.
Turning to `CC(=O)N1CCN(c2nc(N[C@H](C)c3ccc(OC(CF)CF)cc3)c3c(n2)C(=O)N(C(C)C)C3)CC1` [Example 250, (R)-2-(4-acetylpiperazin-1-yl)-4-(1-(4-(1,3-difluoropropan-2-yloxy)phenyl)ethylamino)-6-isopropyl-5H-pyrrolo[3,4-d]pyrimidin-7(6H)-one], the 50% inhibitory concentration (IC50) turned out to be 430 nM.
In the case of `CC(=O)N1CCN(c2nc(N[C@@H](C)c3ccc(OC(CF)CF)cc3)c3c(n2)C(=O)N(C(C)C)C3)CC1` [Example 251, (S)-2-(4-acetylpiperazin-1-yl)-4-(1-(4-(1,3-difluoropropan-2-yloxy)phenyl)ethylamino)-6-isopropyl-5H-pyrrolo[3,4-d]pyrimidin-7(6H)-one] it was 5200 nM; in that of `CC(=O)N1CCN(c2nc3c(c(N(Cc4cc5ccccc5cn4)C(C)C)n2)CN(C(C)C)C3=O)CC1` [Example 254, 2-(4-acetylpiperazin-1-yl)-6-isopropyl-4-(isopropyl(isoquinolin-3-ylmethyl)amino)-5H-pyrrolo[3,4-d]pyrimidin-7(6H)-one], 75 nM.
Take `CC(=O)N1CCN(c2nc3c(c(N(Cc4cc5ccccc5cn4)CC(F)F)n2)CN(C(C)C)C3=O)CC1` [Example 256, 2-(4-acetylpiperazin-1-yl)-4-((2,2-difluoroethyl)(isoquinolin-3-ylmethyl)amino)-6-isopropyl-5H-pyrrolo[3,4-d]pyrimidin-7(6H)-one]: the IC50 is 46 nM.
Regarding `CC(=O)N1CCN(c2nc3c(c(N(Cc4cc5ccccc5cn4)CC(F)(F)F)n2)CN(C(C)C)C3=O)CC1` [Example 264, 2-(4-acetylpiperazin-1-yl)-6-isopropyl-4-((isoquinolin-3-ylmethyl)(2,2,2-trifluoroethyl)amino)-5H-pyrrolo[3,4-d]pyrimidin-7(6H)-one], the IC50 was determined as 2900 nM.
Consider `CC(=O)N1CCN(c2nc3c(c(N4CCCCC4Cc4ccccc4)n2)CN(C(C)C)C3=O)CC1` (stereo not drawn) [Example 266, 4-(4-acetylpiperazin-1-yl)-2-(2-benzyl-1-piperidyl)-8-propan-2-yl-3,5,8-triazabicyclo[4.3.0]nona-1,3,5-trien-7-one], for which the IC50 turned out to be 1000 nM.
Consider `CC(=O)N1CCN(c2nc3c(c(N4CCCC4c4ccc(N(C)C)cc4)n2)CN(C(C)C)C3=O)CC1` (stereo not drawn) [Example 267, 4-(4-acetylpiperazin-1-yl)-2-[2-(4-dimethylaminophenyl)pyrrolidin-1-yl]-8-propan-2-yl-3,5,8-triazabicyclo[4.3.0]nona-1,3,5-trien-7-one], for which the IC50 came to 480 nM.
`CC(=O)N1CCN(c2nc3c(c(N4CCCC4c4cccc(C)c4)n2)CN(C(C)C)C3=O)CC1` (stereo not drawn) [Example 269, 4-(4-acetylpiperazin-1-yl)-2-[2-(3-methylphenyl)pyrrolidin-1-yl]-8-propan-2-yl-3,5,8-triazabicyclo[4.3.0]nona-2,4,10-trien-7-one]: the IC50 is 740 nM.
With `CC(=O)N1CCN(c2nc3c(c(N4CCCC4CCc4ccccc4)n2)CN(C(C)C)C3=O)CC1` (stereo not drawn) [Example 271, 4-(4-acetylpiperazin-1-yl)-2-(2-phenethylpyrrolidin-1-yl)-8-propan-2-yl-3,5,8-triazabicyclo[4.3.0]nona-1,3,5-trien-7-one], the IC50 turned out to be 870 nM.
Regarding `CC(=O)N1CCN(c2nc3c(c(N4CCC4Cc4ccccc4)n2)CN(C(C)C)C3=O)CC1` (stereo not drawn) [Example 273, 4-(4-acetylpiperazin-1-yl)-2-(2-benzylazetidin-1-yl)-8-propan-2-yl-3,5,8-triazabicyclo[4.3.0]nona-1,3,5-trien-7-one], the IC50 is 3200 nM.
To `CC(=O)N1CCN(c2nc(NCc3nc(C4CCCC4)no3)c3c(n2)C(=O)N(C(C)C)C3)CC1` [Example 276, 4-(4-acetylpiperazin-1-yl)-2-[(3-cyclopentyl-1,2,4-oxadiazol-5-yl)methylamino]-8-propan-2-yl-3,5,8-triazabicyclo[4.3.0]nona-1,3,5-trien-7-one] belongs 590 nM.
Take `CC(=O)N1CCN(c2nc3c(c(N4CCC[C@@H]4C(=O)OC(C)(C)C)n2)CN(C(C)C)C3=O)CC1` [Example 277, tert-butyl (2R)-1-[4-(4-acetylpiperazin-1-yl)-7-oxo-8-propan-2-yl-3,5,8-triazabicyclo[4.3.0]nona-1,3,5-trien-2-yl]pyrrolidine-2-carboxylate]: the half-inhibitory concentration (IC50) amounted to 7700 nM.
For `CC(=O)N1CCN(c2nc(NCc3noc(C4CCC4)n3)c3c(n2)C(=O)N(C(C)C)C3)CC1` [Example 278, 4-(4-acetylpiperazin-1-yl)-2-[(5-cyclobutyl-1,2,4-oxadiazol-3-yl)methylamino]-8-propan-2-yl-3,5,8-triazabicyclo[4.3.0]nona-1,3,5-trien-7-one], the IC50 amounted to 750 nM.
For the molecule `CC(=O)N1CCN(c2nc3c(c(N4CCC[C@@H]4C(=O)N4CCc5ccccc54)n2)CN(C(C)C)C3=O)CC1` [Example 279, 4-(4-acetylpiperazin-1-yl)-2-[(2R)-2-(2,3-dihydroindole-1-carbonyl)pyrrolidin-1-yl]-8-propan-2-yl-3,5,8-triazabicyclo[4.3.0]nona-1,3,5-trien-7-one], the IC50 turned out to be 1800 nM.
Consider `CC(=O)N1CCN(c2nc3c(c(N4CCCC4c4nc(-c5ccccc5)no4)n2)CN(C(C)C)C3=O)CC1` (stereo not drawn) [Example 280, 4-(4-acetylpiperazin-1-yl)-2-[2-(3-phenyl-1,2,4-oxadiazol-5-yl)pyrrolidin-1-yl]-8-propan-2-yl-3,5,8-triazabicyclo[4.3.0]nona-1,3,5-trien-7-one], for which the IC50 was found to be 5100 nM.
To `CCOc1ccc(CC2CCCN2c2nc(N3CCN(C(C)=O)CC3)nc3c2CN(C(C)C)C3=O)cc1` (stereo not drawn) [Example 289, 2-(4-acetylpiperazin-1-yl)-4-[2-[(4-ethoxyphenyl)methyl]pyrrolidin-1-yl]-6-isopropyl-5H-pyrrolo[4,3-e]pyrimidin-7-one] belongs 330 nM.

As a reminder, the IC50 is the concentration needed to halve the response being measured.
